Assay results published in PMC10619143, “Development of a covalent cereblon-based PROTAC employing a fluorosulfate warhead” (RSC Chemical Biology, 2023).

Target: T1, cereblon (CRBN) (Homo sapiens, UniProt Q96SW2)
T1 construct: CRBN-DDB1ΔB complex; with DDB1ΔB
Assay: intact protein MS covalent labelling and MS/MS site mapping (also cellular NanoBRET IC50 […] at […] h)
Format: binding

T1 sequence (Q16531 2-1140): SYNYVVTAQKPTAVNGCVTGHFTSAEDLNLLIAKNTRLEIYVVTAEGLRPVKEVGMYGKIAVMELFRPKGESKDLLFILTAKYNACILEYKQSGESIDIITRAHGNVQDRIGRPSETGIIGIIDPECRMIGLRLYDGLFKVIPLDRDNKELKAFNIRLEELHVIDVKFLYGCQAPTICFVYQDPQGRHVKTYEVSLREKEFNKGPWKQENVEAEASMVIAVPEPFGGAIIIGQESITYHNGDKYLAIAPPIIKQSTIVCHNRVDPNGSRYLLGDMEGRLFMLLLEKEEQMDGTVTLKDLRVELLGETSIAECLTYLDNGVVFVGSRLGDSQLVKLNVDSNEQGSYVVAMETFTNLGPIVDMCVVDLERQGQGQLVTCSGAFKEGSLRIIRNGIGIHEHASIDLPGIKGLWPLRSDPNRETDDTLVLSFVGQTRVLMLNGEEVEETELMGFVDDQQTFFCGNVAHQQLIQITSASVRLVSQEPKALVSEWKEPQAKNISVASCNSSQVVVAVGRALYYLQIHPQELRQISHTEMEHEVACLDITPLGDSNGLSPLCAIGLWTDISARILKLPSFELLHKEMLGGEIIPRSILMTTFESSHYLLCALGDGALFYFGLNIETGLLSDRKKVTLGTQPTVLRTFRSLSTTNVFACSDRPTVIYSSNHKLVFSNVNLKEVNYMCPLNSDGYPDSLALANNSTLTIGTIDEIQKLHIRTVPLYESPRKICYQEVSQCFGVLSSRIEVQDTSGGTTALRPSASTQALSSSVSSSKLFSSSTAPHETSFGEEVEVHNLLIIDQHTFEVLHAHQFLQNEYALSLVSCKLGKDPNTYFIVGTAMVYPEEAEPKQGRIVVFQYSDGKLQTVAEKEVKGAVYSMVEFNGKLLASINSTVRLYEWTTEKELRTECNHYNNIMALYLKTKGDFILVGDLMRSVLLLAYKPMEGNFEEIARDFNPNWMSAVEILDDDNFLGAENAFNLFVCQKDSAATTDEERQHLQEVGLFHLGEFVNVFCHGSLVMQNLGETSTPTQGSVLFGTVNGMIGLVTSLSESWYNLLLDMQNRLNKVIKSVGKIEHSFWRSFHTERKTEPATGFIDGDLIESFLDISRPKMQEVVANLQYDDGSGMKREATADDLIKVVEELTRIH
T1 sequence (Q96SW2 whole entry): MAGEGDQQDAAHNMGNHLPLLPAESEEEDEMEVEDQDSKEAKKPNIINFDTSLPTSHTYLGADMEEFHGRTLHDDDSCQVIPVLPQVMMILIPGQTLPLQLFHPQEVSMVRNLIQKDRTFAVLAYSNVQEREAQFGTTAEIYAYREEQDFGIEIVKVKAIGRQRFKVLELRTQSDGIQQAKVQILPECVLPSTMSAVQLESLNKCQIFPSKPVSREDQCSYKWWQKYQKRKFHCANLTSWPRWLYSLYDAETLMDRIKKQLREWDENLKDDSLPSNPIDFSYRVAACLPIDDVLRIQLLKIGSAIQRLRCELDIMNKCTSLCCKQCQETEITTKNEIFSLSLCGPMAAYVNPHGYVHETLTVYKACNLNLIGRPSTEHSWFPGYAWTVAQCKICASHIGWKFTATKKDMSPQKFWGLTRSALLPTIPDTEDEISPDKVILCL

**Q.** How did the “% labelled (10 μM, 24 h)” value turn out when `Cc1sc2c(c1C)C(c1ccc(Cl)cc1)=N[C@@H](CC(=O)Nc1ccc(OCCOCCOCCOCCNc3cc(OS(=O)(=O)F)cc4c3C(=O)N(C3CCC(=O)NC3=O)C4=O)cc1)c1nnc(C)n1-2` (stereo partly shown) [FS-ARV-825] was run?
**A.** The value was ~ 50 % labelled (10 μM, 24 h).
